Source: patent publication US9938269B2, “Inhibitor compounds of phosphodiesterase type 10A” (ABBVIE INC., priority 2011, dated 2018)
Where a name gives a salt, the structure may show the parent alone.

Tests used:
[1] = Determination of the microsomal half-life, rat liver microsomes; conditions: rat, liver microsomes, pH 7.4
[2] = Determination of the microsomal half-life, human liver microsomes; conditions: human, liver microsomes, pH 7.4
PDE10A (human) = biological target: T1, PDE10A (human) (Homo sapiens, UniProt Q9Y233); assay: Measurement of PDE activity (HTRF cAMP kit), human PDE10A; type: biochemical; conditions: PDE enzymatic reaction, substrate 20 nM for PDE10, 60 minutes at 29 C
T1 construct: purchased BPS Bioscience
T1 sequence (Q9Y233 whole entry): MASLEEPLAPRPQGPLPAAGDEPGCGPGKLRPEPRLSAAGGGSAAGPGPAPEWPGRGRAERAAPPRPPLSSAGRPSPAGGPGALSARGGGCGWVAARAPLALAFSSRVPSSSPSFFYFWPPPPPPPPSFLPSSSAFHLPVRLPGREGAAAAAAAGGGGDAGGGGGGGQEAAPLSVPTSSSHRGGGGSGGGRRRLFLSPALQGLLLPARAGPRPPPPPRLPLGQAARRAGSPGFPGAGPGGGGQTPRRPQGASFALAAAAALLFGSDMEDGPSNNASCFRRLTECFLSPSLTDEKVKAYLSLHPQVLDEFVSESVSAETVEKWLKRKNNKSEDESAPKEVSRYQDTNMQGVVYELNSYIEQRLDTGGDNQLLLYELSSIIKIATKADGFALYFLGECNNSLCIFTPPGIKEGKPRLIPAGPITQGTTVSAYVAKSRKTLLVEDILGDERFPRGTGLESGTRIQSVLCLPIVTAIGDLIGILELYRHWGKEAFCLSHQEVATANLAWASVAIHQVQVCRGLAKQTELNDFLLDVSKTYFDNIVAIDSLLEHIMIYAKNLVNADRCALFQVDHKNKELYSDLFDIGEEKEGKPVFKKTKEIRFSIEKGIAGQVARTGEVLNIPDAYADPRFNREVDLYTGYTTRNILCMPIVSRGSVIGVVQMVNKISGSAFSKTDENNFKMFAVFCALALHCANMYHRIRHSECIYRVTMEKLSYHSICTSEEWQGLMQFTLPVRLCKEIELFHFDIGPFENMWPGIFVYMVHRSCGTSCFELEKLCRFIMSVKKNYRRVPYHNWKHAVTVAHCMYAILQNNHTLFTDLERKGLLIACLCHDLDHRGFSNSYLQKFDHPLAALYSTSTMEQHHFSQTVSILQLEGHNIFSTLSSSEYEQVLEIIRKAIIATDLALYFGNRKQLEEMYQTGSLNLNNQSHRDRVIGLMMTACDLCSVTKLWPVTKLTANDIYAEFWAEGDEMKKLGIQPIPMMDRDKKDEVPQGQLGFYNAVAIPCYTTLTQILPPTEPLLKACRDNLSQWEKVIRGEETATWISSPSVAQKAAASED
How it was run: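 Recombinant human PDE10A (10–250 pM range across PDEs) with 20 nM cAMP substrate in 20 mM Tris-HCl pH 7.5, 10 mM MgCl2, 0.1% BSA, compound pre-mixed with enzyme. Ran 60 min at 29 °C. Remaining cAMP read by HTRF, converted to % of uninhibited activity, and IC50 fitted.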

| microsomal CLint at 0.5 μM [1] [µL/min/mg] | microsomal CLint at 0.5 μM [2] [µL/min/mg] | IC50 (PDE10A (human)) [nM] | SMILES |
| --- | --- | --- | --- |
| < 100 | 100 to 220 | < 100 | O=C1c2c(cccc2N2CCOCC2)CN1CCc1nc2ccccc2s1 [Example 263, 2-(2-Benzothiazol-2-yl-ethyl)-7-morpholin-4-yl-2,3-dihydro-isoindol-1-one trifluoroacetate] |
| < 100 | < 100 | < 100 | O=C1Cc2ccc(-c3cccc4c3C(=O)N(CCc3cn5ccccc5n3)C4)cc2N1 [Example 241, 6-[2-(2-Imidazo[1,2-a]pyridin-2-yl-ethyl)-3-oxo-2,3-dihydro-1H-isoindol-4-yl]-1,3-dihydro-indol-2-one] |
| < 100 | < 100 | 200 to 500 | Cn1nccc1-c1cccc2c1C(=O)N(CCc1nc3ccccc3[nH]1)C2 [Example 313, 2-[2-(1H-Benzoimidazol-2-yl)-ethyl]-7-(2-methyl-2H-pyrazol-3-yl)-2,3-dihydro-isoindol-1-one trifluoroacetate] |
| < 100 | 100 to 220 | < 100 | O=C1c2c(-c3cncnc3)ccc(F)c2CN1CCc1cn2ccccc2n1 [Example 381, 4-Fluoro-2-(2-imidazo[1,2-a]pyridin-2-yl-ethyl)-7-pyrimidin-5-yl-2,3-dihydro-isoindol-1-one] |
| 100 to 220 | < 100 | < 100 | O=C1c2c(-c3cn[nH]c3)ccnc2CN1CCc1nc2ccccc2s1 [compound 538, 6-[2-(1,3-Benzothiazol-2-yl)ethyl]-4-(1H-pyrazol-4-yl)-7H-pyrrolo[3,4-b]pyridin-5-one trifluoroacetate] |
| < 100 | < 100 | 200 to 500 | O=C1c2c(-c3cscn3)ccnc2CN1CCc1nc2ccccc2s1 [compound 436, 6-[2-(1,3-Benzothiazol-2-yl)ethyl]-4-thiazol-4-yl-7H-pyrrolo[3,4-b]pyridin-5-one] |
| < 100 | < 100 | 100 to 200 | Cc1cccnc1CCN1Cc2nccc(N3CCOCC3)c2C1=O [compound 522, 6-[2-(3-Methyl-2-pyridyl)ethyl]-4-morpholino-7H-pyrrolo[3,4-b]pyridin-5-one] |
| 100 to 220 | > 220 | 200 to 500 | Cn1cnc2ccc(-c3cccc4c3C(=O)N(CCc3ccc5ccccc5n3)C4)cc21 [Example 8, 7-(3-Methyl-3H-benzoimidazol-5-yl)-2-(2-quinolin-2-yl-ethyl)-2,3-dihydro-isoindol-1-one trifluoroacetate] |
| < 100 | < 100 | < 100 | COc1ccc(-c2cncnc2)c2c1C(=O)N(CCc1cn3ccccc3n1)C2 [compound 549, 2-(2-Imidazo[1,2-a]pyridin-2-yl-ethyl)-7-methoxy-4-pyrimidin-5-yl-2,3-dihydro-isoindol-1-one trifluoroacetate] |
| > 220 | < 100 | 100 to 200 | COc1ccc(-c2ccnc3c2CN(CCc2cn4ccccc4n2)C3=O)cc1 [compound 461, 6-(2-Imidazo[1,2-a]pyridin-2-yl-ethyl)-4-(4-methoxy-phenyl)-5,6-dihydro-pyrrolo[3,4-b]pyridin-7-one trifluoroacetate] |
| < 100 | < 100 | < 100 | Cc1c(-c2ccnc3c2C(=O)N(CCc2ccc4ccccc4n2)C3)cnn1C [Example 332, 4-(1,5-Dimethyl-1H-pyrazol-4-yl)-6-(2-quinolin-2-yl-ethyl)-6,7-dihydro-pyrrolo[3,4-b]pyridin-5-one] |
| 100 to 220 | > 220 | < 100 | O=C1c2c(cccc2N2CCCOCC2)CN1CCc1ccc2ccccc2n1 [Example 110, 7-[1,4]Oxazepan-4-yl-2-(2-quinolin-2-yl-ethyl)-2,3-dihydro-isoindol-1-one hydrochloride] |
| 100 to 220 | < 100 | < 100 | CCc1ccn2cc(CCN3Cc4nccc(-c5ccncc5)c4C3=O)nc2c1 [compound 552, 6-[2-(7-Ethylimidazo[1,2-a]pyridin-2-yl)ethyl]-4-(4-pyridyl)-7H-pyrrolo[3,4-b]pyridin-5-one] |
| 100 to 220 | > 220 | 200 to 500 | O=C1c2c(cccc2-c2ccncc2)CN1CCc1nc2ccccc2n1C(F)F [compound 450, 2-[2-(1-Difluoromethyl-1H-benzoimidazol-2-yl)-ethyl]-7-pyridin-4-yl-2,3-dihydro-isoindol-1-one trifluoroacetate] |
| 100 to 220 | 100 to 220 | < 100 | COc1ccc(N2CCS(=O)(=O)CC2)c2c1CN(CCc1ccc3ccccc3n1)C2=O [Example 189, 7-(1,1-Dioxo-thiomorpholin-4-yl)-4-methoxy-2-(2-quinolin-2-yl-ethyl)-2,3-dihydro-isoindol-1-one] |
| < 100 | 100 to 220 | 200 to 500 | CN(C)CCCn1c(CCN2Cc3cccc(-c4ccncc4)c3C2=O)nc2ccccc21 [Example 294, 2-{2-[1-(3-Dimethylamino-propyl)-1H-benzoimidazol-2-yl]-ethyl}-7-pyridin-4-yl-2,3-dihydro-isoindol-1-one trifluoroacetate] |
| < 100 | < 100 | 200 to 500 | O=C1c2c(N3CCOCC3)ccnc2CN1CCc1ccccn1 [compound 550, 4-Morpholino-6-[2-(2-pyridyl)ethyl]-7H-pyrrolo[3,4-b]pyridin-5-one] |
| < 100 | < 100 | < 100 | COc1ccc(N2CCOCC2)c2c1CN(CCc1cn3ccccc3n1)C2=O [Example 264, 2-(2-Imidazo[1,2-a]pyridin-2-yl-ethyl)-4-methoxy-7-morpholin-4-yl-2,3-dihydro-isoindol-1-one trifluoroacetate] |
| > 220 | 100 to 220 | < 100 | O=C1c2cccc(OCc3cccnc3)c2C(=O)N1CCc1ccc2ccccc2n1 [Example 246, 4-(Pyridin-3-ylmethoxy)-2-(2-quinolin-2-yl-ethyl)-isoindole-1,3-dione] |
| 100 to 220 | 100 to 220 | < 100 | O=C1c2c(N3CCOCC3)ccnc2CN1CCc1ccc2sccc2n1 [compound 491, 4-Morpholino-6-(2-thieno[3,2-b]pyridin-5-ylethyl)-7H-pyrrolo[3,4-b]pyridin-5-one] |
| < 100 | 100 to 220 | < 100 | Cc1ccc2c(c1)nc(CCN1Cc3nccc(-c4ccncc4)c3C1=O)n2C [compound 536, 6-[2-(1,5-Dimethyl-1H-benzoimidazol-2-yl)-ethyl]-4-pyridin-4-yl-6,7-dihydro-pyrrolo[3,4-b]pyridin-5-one] |
| > 220 | 100 to 220 | 100 to 200 | Cn1ccc(-c2ccnc3c2C(=O)N(CCc2ccc4ccccc4n2)C3)c1 [Example 337, 4-(1-Methyl-1H-pyrrol-3-yl)-6-(2-quinolin-2-yl-ethyl)-6,7-dihydro-pyrrolo[3,4-b]pyridin-5-one] |
